Literature values as cited in patent US8440844B2, “Process for the preparation of β-amino alcohol” (Council of Scientific & Industrial Research, priority 2011, dated 2013).

What was measured:
γ-secretase = details: Notch-1-sparing γ-secretase inhibitor; background statement, no method given
[1] = tested on: β-amyloid (Aβ) production; details: background statement

EC50 (γ-secretase): 28 nM
Compound: CCC(CC)[C@@H](CO)NS(=O)(=O)c1ccc(Cl)s1 [(S)—N-(5-chlorothiophene-2-sulfonyl)-β,β-diethylalaninol]
reduction of Aβ production in vivo [1]: effective in reduction of Aβ production in vivo
